Measurements from paper PMC8648872, “A host-directed macrocyclic peptide therapeutic for MDR gram negative bacterial infections” (Scientific Reports, 2021).
Where a SMILES comes first, the peptide text is derived from it. Bridges are numbered along the chain shown (N, C = ends).

Legend:
E. coli BAA-2340 = assay: CRE E. coli BAA-2340 septicemia, survival; type: in vivo, BALB/c mice; conditions: KPC+ E. coli BAA-2340 i.p., saline controls 10%
Method: BALB/c mice (Jackson Laboratories) 8–10 weeks of age were acclimated (3–5 to a cage for at least 5 days prior to infection) in a thermostatically controlled room with 12 h light/dark cycle. Cryopreserved K. pneumoniae cells were thawed and adjusted to a density of 6–10 × 10^8 CFU/ml, confirmed by plating on trypticase soy agar (TSA) plates. E. coli BAA-2340 was grown to log-phase in trypticase soy broth, pelleted, washed with PBS, and resuspended in PBS at 0.5–1 × 10^9 CFU/ml. Mice were infected by i.p. injection of 2–5 × 10^8 CFU of Kp-1705 or 3–6 × 10^7 CFU of E. coli BAA-2340 using a 28 g needle in a volume of 0.5 ml. Post-infection, mice were observed three times a day for at least 4 days and then daily for 28 days. Mice were euthanized when they became moribund. All experiments used both male and female mice and were repeated at least twice.

[1] = LPS neutralization, limulus amebocyte lysate assay; type: biochemical; conditions: 0.5 EU/ml LPS, 0.078–5 μg/ml, 37 °C, 30 min; data not shown
Method: A limulus amebocyte lysate endotoxin detection assay (Pierce A39553) protocol was employed by preincubating 0.5 EU/ml of LPS with either MTD12813, RTD-1, or colistin (0.078–5 μg/ml) in H20 at 37 °C for 30 min followed by quantifying free LPS per manufacturer’s instructions. All samples were compared to a LPS standard curve to determine the degree of LPS neutralization.

RAW 264.7 macrophages = assay: TNF release by LPS-stimulated RAW 264.7 cells; type: cell-based, mouse; conditions: RAW 264.7, 5 ng/ml LPS, 2 h, ELISA
Method: Mouse RAW 264.7 macrophages (RAW cells; ATCC, TIB-71) were grown in Dulbecco’s Modified Eagle Medium (DMEM) with 10% heat-inactivated fetal bovine serum (HI-FBS) with 100 U/ml penicillin/streptomycin, and suspended to 2–3 × 10^6 cells/ml in fresh media before use.
RAW cells were seeded into 48-well tissue culture plates at 1–1.5 × 10^5 cells/well and allowed to adhere overnight. Cells were washed twice and suspended in DMEM with 1% FBS with 0–5 µg/ml of MTD12813 immediately followed by addition of 5 ng/ml (25 EU/ml) of E. coli 0111:B4 LPS (Sigma L4391). Plates were incubated for 2 h at 37 °C in 5% CO2. Well contents were removed, clarified by centrifugation, and supernatants frozen at − 80 °C. Supernatant TNF was quantified by mouse TNF ELISA (Invitrogen, Cat #BMS607-3).

Kp-1705 = assay: Viability and replication fitness of Kp-1705 at sub-MIC peptide; type: cell-based, K. pneumoniae; conditions: Kp-1705 (1 x 10^9 CFU/ml), 1 h with 1.25 µg/ml MTD12813; CFU on TSA, growth at A620
Method: Cryopreserved Kp-1705 was suspended in PBS to a density of ca. 1 × 10^9 CFU/ml, and incubated with saline or 1.25 µg/ml MTD12813 at room temperature for 1 h. Mice (n = 26) were then infected i.p. with 500 µl of saline- or MTD12813- pretreated Kp-1705, and a third cohort (n = 12) received 500 µl i.p. of 1.25 µg/ml MTD12813 immediately following infection with saline treated Kp-1705. Five mice from each cohort were euthanized 4 h p.i., and peritoneal lavage was collected for bacterial burden determination and cytospin preparation. In vitro antibacterial activity of MTD12813 (1.25 μg/ml) -treated cells (1 h; 37 °C) was determined by plating saline or peptide treated cells on TSA plates. Growth kinetics of saline and MTD12813-treated cells was determined by diluting samples from the 1 h incubation mixtures 1:40 into TSB and monitoring growth (620 nm) for 5.5 h at 37 °C. Antibacterial activity of MTD12813 in PF was determined by i.p. injection of naïve male BALB/c mice (n = 5 per group) with 1.25 mg/kg of MTD12813 or saline i.p. (10 ml/kg). […] Peritoneal fluid was clarified by centrifugation at 1200×g and an aliquot used to quantify MTD12813 by LC–MS/MS, as described above. Antimicrobial activity was determined by incubating PF (9:1 vol/vol) with Kp-1705 at a final density of 3 × 10^7 CFU/ml. […]
replication fitness of Kp-1705. […] (a) Bacterial viability was quantified as CFU on TSA plates. […]

CC[C@H](C)[C@@H]1NC(=O)[C@@H]2CSSC[C@H](NC(=O)[C@H]([C@@H](C)CC)NC(=O)[C@@H]3CSSC[C@H](NC1=O)C(=O)N[C@@H](C(C)C)C(=O)NCC(=O)N[C@@H](CCCNC(=N)N)C(=O)NCC(=O)N3)C(=O)N[C@@H](C(C)C)C(=O)N[C@@H](CCCNC(=N)N)C(=O)N[C@@H](CCCNC(=N)N)C(=O)N[C@@H](CCCNC(=N)N)C(=O)N2 [MTD12813] (cyclo(CICVGRGCICVRRR); disulfide 1-10, 3-8)
survival ≥ 28 days (E. coli BAA-2340; single i.p. injection 1.25 mg/kg 1 h p.i.): 100% | survival ≥ 28 days (E. coli BAA-2340; single i.p. injection 5 mg/kg 1 h p.i.): 100% | LPS inhibition (neutralization) [1]: No LPS inhibition | concentration for 50% TNF suppression relative to RTD-1 (RAW 264.7 macrophages): ca. fourfold lower concentration than RTD-1 | bacterial viability and replication fitness (Kp-1705): no effect on bacterial viability or replication fitness
